Like-named read-outs stand apart in the source and are kept apart here.
Tests used:
Aβ1-40 = experiment: Measurement of Aβ1-40 in culture medium of 7W WT APP751 CHO cells by ELISA; format: cell-based, Chinese hamster; conditions: for activity at 5 µM: Cricetulus griseus, 5 μM test compound, CHO cells stably transfected with human APP751, culture medium, ELISA, control DMSO; for Aβ1-40 (% of control): CHO cells that overexpress APP751, zero = below the detection limit of the assay;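 as to all read-outs here: 5 µM test compound but RI-coded compounds at 10 µM for 24 hours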
Description: (§1) Chinese hamster ovary (CHO) cells, stably transfected with human APP751 (7W WT APP751 CHO cells) were used. See, e.g., Koo and Squazzo, J. Biol. Chem., 269(26): 17386-17389, 1994. The cells were maintained in DMEM medium supplemented with 10% fetal bovine serum and 1× mixture of penicillin/streptomycin/fungizone/glutamine mixture (Cambrex, Md.) geneticin as selecting agent in 75 cm^2 cell culture flasks. The 7W WT APP751 CHO cells were plated in 96-well cell culture plates in quadruplicate, containing 200 microliters of culture medium, for 18 hours at 37° C. and 5% CO2. All test compounds were placed in dimethyl sulfoxide (DMSO) before being added to the cultured confluent 7W WT APP751 CHO cells to a concentration of the test compound of 5 μM. The culture medium was collected and diluted before being assayed by ELISAs for Aβ1-40 at 10-fold dilution and Aβ1-42 at 2-fold dilution, respectively. Concentrations of Aβ1-40 and Aβ1-42, expressed in pg/ml, were determined using commercially available ELISAs (Biosource, Calif.) in a colorimetric assay using labeled antibodies detected spectrophotometrically. For compounds with an identification beginning “RI”, the compounds were tested at a concentration of 10 μM for 24 hours. Control cells were treated with DMSO containing no compound. The percentage reduction in levels of Aβ1-40 and Aβ1-42 as compared to control cells not exposed to the test compounds are reported for the compounds in Tables 1, 2, and 3, supra. An entry of “0” indicates no detectable amount of Aβ1-40 or Aβ1-42 according to the assay conditions. The data in Tables 1, 2, and 3 may be rounded to the nearest 0.1%.

Aβ1-42 = experiment: Measurement of Aβ1-42 in culture medium of 7W WT APP751 CHO cells by ELISA; format: cell-based, Chinese hamster; conditions: for activity at 5 µM: Cricetulus griseus, 5 μM test compound, CHO cells stably transfected with human APP751, culture medium, ELISA, control DMSO; for Aβ1-42 (% of control): CHO cells that overexpress APP751, zero = below the detection limit of the assay;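 as to Aβ1-42 (% of control): 5 µM test compound but RI-coded compounds at 10 µM for 24 hours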
Description: as §1

[1] = Table 1, 0 = no detectable amount
[2] = Table 1, 0 = no detectable amount, read-out: Aβ1-42 (% of control)

Structure (SMILES)	activity at 5 µM (Aβ1-40; [1])	activity at 5 µM (Aβ1-42; [2])	further results
COC(=O)C1=C(C)NC2=C(C(=O)CC(C)(C)C2)C1c1ccc(C(F)(F)F)cc1 (stereo not shown) [ST052359, methyl 2,7,7-trimethyl-5-oxo-4-[4-(trifluoromethyl)phenyl]-1,4,6,7,8-pentahydroquinoline-3-carboxylate]	31%	29.5%	
CC1=C(C(=O)OCCc2ccccc2)C(c2ccc(C)cc2)C2=C(CC(C)(C)CC2=O)N1 (stereo not shown) [ST015099, 2-phenylethyl 2,7,7-trimethyl-4-(4-methylphenyl)-5-oxo-1,4,6,7,8-pentahydroquinoline-3-carboxylate]	14.8%	33.8%	
CCCCCc1c2c(C)c(C(=O)OCC)cc-2cc2n1C(C)C(C)=C2C (stereo not shown) [ST020165, ethyl 3,6,7,8-tetramethyl-4-pentyl-6-hydropyrrolo[4,5-f]indolizine-2-carboxyla te, chloride]			activity at 5 µM (Aβ1-40; Table 3): 90.9%; activity at 5 µM (Aβ1-42; Table 3, read-out: Aβ-42 (% of control)): 23.1%
CC1=C(C(=O)OCC(C)C)C(c2cccc3ccccc23)C2=C(CCCC2=O)N1 (stereo not shown) [ST052365, 2-methylpropyl 2-methyl-4-naphthyl-5-oxo-1,4,6,7,8-pentahydroquinoline-3-carboxylate]	59.1%	72.8%	
COC(=O)C1=C(C)NC(SCC(=O)c2cccs2)=C(C#N)C1c1ccc2c(c1)OCCO2 (stereo not shown) [ST014052, methyl 4-(2H,3H-benzo[3,4-e]1,4-dioxan-6-yl)-5-cyano-2-methyl-6-(2-oxo-2-(2-thienyl)ethylthio)-1,4-dihydropyridine-3-carboxylate]			Aβ1-40 (% of control) (Aβ1-40): 49 % of control; Aβ1-42 (% of control) (Aβ1-42): 74.69 % of control
CCOC(=O)C1=CN(c2ccc(C)cc2)C=C(C(=O)OCC)C1c1ccccc1OCC [ST052284, ethyl 5-(ethoxycarbonyl)-4-(2-ethoxyphenyl)-1-(4-methylphenyl)-1,4-dihydropyridine-3-carboxylate]			Aβ1-40 (% of control) (Aβ1-40): 57.71 % of control; Aβ1-42 (% of control) (Aβ1-42): 55.61 % of control
COc1ccc(COC(=O)C2=C(C)NC3=C(C(=O)CCC3)C2c2ccccc2C(F)(F)F)cc1 (stereo not shown) [ST052271, (4-methoxyphenyl)methyl 2-methyl-5-oxo-4-[2-(trifluoromethyl)phenyl]-1,4,6,7,8-pentahydroquinoline-3-carboxylate]	25.8%	23.9%	
CCOC(=O)C1=C(N)n2c(s/c(=C\c3ccc(C(C)C)cc3)c2=O)=C(S(=O)(=O)c2ccccc2)C1c1ccc(C(C)C)cc1 (stereo not shown) [ST011326]			Aβ1-40 (% of control) (Aβ1-40): 54.94 % of control; Aβ1-42 (% of control) (Aβ1-42): 72.95 % of control
COC(=O)C1=C(C)NC2=C(C(=O)CCC2)C1c1cccc(OC)c1OC (stereo not shown) [ST013140, methyl 4-(2,3-dimethoxyphenyl)-2-methyl-5-oxo-1,4,6,7,8-pentahydroquinoline-3-carboxylate]	96%	51.1%	
CCCCCOC(=O)C1=C(C)NC2=C(C(=O)CC(C)(C)C2)C1c1ccc(C)cc1 (stereo not shown) [ST216602, pentyl 2,7,7-trimethyl-4-(4-methylphenyl)-5-oxo-1,4,6,7,8-pentahydroquinoline-3-carboxylate]	2.65%	5.01%	
CCOc1ccc(C2C(C(=O)OC(C)C)=C(C)NC3=C2C(=O)CCC3)cc1OC (stereo not shown) [ST013323, methylethyl 4-(4-ethoxy-3-methoxyphenyl)-2-methyl-5-oxo-1,4,6,7,8-pentahydroquinoline-3-carboxylate]	56.7%	80.1%	
CCOC(=O)C1=C(C)NC2=C(C(=O)CCC2)C1c1ccc(O)c(OCC)c1 (stereo not shown) [ST013158, ethyl 4-(3-ethoxy-4-hydroxyphenyl)-2-methyl-5-oxo-1,4,6,7,8-pentahydroquinoline-3-carboxylate]	75%	67.8%	
CCC(C)OC(=O)C1=C(C)NC2=C(C(=O)CC(c3ccccc3)C2)C1c1ccc(Cl)c(Cl)c1 (stereo not shown) [ST017319, methylpropyl 4-(3,4-dichlorophenyl)-2-methyl-5-oxo-7-phenyl-1,4,6,7,8-pentahydroquinoline-3-carboxylate]	26.8%	97.5%	
CCCCOC(=O)C1=C(C)NC2=C(C(=O)CCC2)C1c1ccc(Br)cc1 (stereo not shown) [ST017167, butyl 4-(4-bromophenyl)-2-methyl-5-oxo-1,4,6,7,8-pentahydroquinoline-3-carboxylate]	79%	50.5%	
CCOC(=O)C1=C(C)NC2=C(C(=O)CC(c3ccc(OC)cc3)C2)C1c1ccccc1F (stereo not shown) [ST015256, ethyl 4-(2-fluorophenyl)-7-(4-methoxyphenyl)-2-methyl-5-oxo-1,4,6,7,8-pentahydroquinoline-3-carboxylate]	69.8%	75.8%	
CC1=C(C(=O)Nc2ccccc2)C(c2cccs2)C(C#N)=C(SCC(=O)Nc2ccc(Cl)c(C)c2)N1 (stereo not shown) [RI_72]			Aβ1-40 (% of control) (Aβ1-40): 40.2 % of control; Aβ1-42 (% of control) (Aβ1-42): 50.9 % of control
CCOC(=O)C1=C(C)NC2=C(C(=O)CCC2)C1c1ccc(Br)cc1 (stereo not shown) [ST211289, ethyl 4-(4-bromophenyl)-2-methyl-5-oxo-1,4,6,7,8-pentahydroquinoline-3-carboxylate]	89.1%	63.6%	
CC1=C(C(=O)OCC(C)C)C(c2ccc(F)c(F)c2)C2=C(CCCC2=O)N1 (stereo not shown) [ST052345, 2-methylpropyl 4-(3,4-difluorophenyl)-2-methyl-5-oxo-1,4,6,7,8-pentanydroquinoline-3-carboxylate]	43.6%	7.81%	
CC1=C(C(=O)OCCc2ccccc2)C(c2ccccc2Br)C2=C(CC(c3ccccc3)CC2=O)N1 (stereo not shown) [ST015234, 2-phenylethyl 4-(2-bromophenyl)-2-methyl-5-oxo-7-phenyl-1,4,6,7,8-pentahydroquinoline-3-carboxylate]	51.8%	54.8%	
CC1=C(C(=O)OCc2ccccc2)C(c2coc3ccc(Cl)cc3c2=O)C2=C(CCCC2=O)N1 (stereo not shown) [ST052468, phenylmethyl 4-(6-chloro-4-oxochromen-3-yl)-2-methyl-5-oxo-1,4,6,7,8-pentahydroquinoline-3-carboxylate]	43.9%	31.9%	
N#CC1=C(N)N(c2ccc(F)cc2)C2=C(C(=O)CC(c3ccccc3)C2)C1c1ccsc1 (stereo not shown) [ST040993, 2-amino-1-(4-fluorophenyl)-5-oxo-7-phenyl-4-(3-thienyl)-1,4,6,7,8-pentahydroquinoline-3-carbonitrile]	65.7%	46.9%	
CC1=C(C(=O)OCCc2ccccc2)C(c2cccc(Cl)c2Cl)C2=C(CCCC2=O)N1 (stereo not shown) [ST015062, 2-phenylethyl 4-(2,3-dichlorophenyl)-2-methyl-5-oxo-1,4,6,7,8-pentahydroquinoline-3-carboxylate]	30.6%	20.8%	
COc1ccc(CCNC(=O)CSC2=C(C#N)C(c3cccs3)C(C(=O)Nc3ccccc3)=C(C)N2)cc1OC (stereo not shown) [RI_15]			Aβ1-40 (% of control) (Aβ1-40): 74.9 % of control; Aβ1-42 (% of control) (Aβ1-42): 41.2 % of control
COc1ccc(OC)c(C2C(C(=O)OC3CCCCC3)=C(C)NC3=C2C(=O)CCC3)c1 (stereo not shown) [ST013270, cyclohexyl 4-(2,5-dimethoxyphenyl)-2-methyl-5-oxo-1,4,6,7,8-pentahydroquinoline-3-carboxylate]	19.7%	35%	
CCc1cccc(NC(=O)CSC2=C(C#N)C(c3sccc3C)C(C(=O)Nc3ccccc3)=C(C)N2)c1 (stereo not shown) [RI_79]			Aβ1-40 (% of control) (Aβ1-40): 55.46 % of control; Aβ1-42 (% of control) (Aβ1-42): 51.6 % of control
CCOC(=O)C1=C(C)NC2=C(C(=O)CCC2)C1c1ccc(OCc2ccc(Cl)cc2)c(OC)c1 (stereo not shown) [ST028598, ethyl 4-{4-[(4-chlorophenyl)methoxy]-3-methoxyphenyl}-2-methyl-5-oxo-1,4,6,7,8-pentahydroquinoline-3-carboxylate]	27.4%	71.6%	
CCCOC(=O)C1=C(C)NC2=C(C(=O)CCC2)C1c1ccccc1OC(C)C (stereo not shown) [ST013322, propyl 2-methyl-4-[2-(methylethoxy)phenyl]-5-oxo-1,4,6,7,8-pentahydroquinoline-3-carboxylate]	57.6%	99.7%	
CCOC(=O)C1=C(C)NC2=C(C(=O)CCC2)C1c1cc(Br)c(C)s1 (stereo not shown) [ST020910, ethyl 4-(4-bromo-5-methyl(2-thienyl))-2-methyl-5-oxo-1,4,6,7,8-pentahydroquinoline-3-carboxylate]	47.3%	69.8%	
N#CC1=C(N)NC(SCC(N)=O)=C(C#N)C1c1ccccc1Br (stereo not shown) [RI_1]			Aβ1-40 (% of control) (Aβ1-40): 93.2 % of control; Aβ1-42 (% of control) (Aβ1-42): 75.4 % of control

Reference: patent US20100119599A1 (ARCHER PHARMACEUTICALS, INC., priority 2006, published 2010)
